From PubChem BioAssay (NCI)
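Where inhibition never reached the appropriate level, the endpoint shown equals the highest concentration tested. Otherwise, values were interpolated linearly from a five-concentration, 48-hour dose response in 96-well plates. GI50 marks 50% less growth. TGI is the concentration that stops growth completely.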

Assays:
Assay in all cases: inhibition of tumour cell growth, NCI panel, 48 h
RXF 393 renal = tested on: RXF 393 renal
LOX IMVI melanoma = tested on: LOX IMVI melanoma
SK-MEL-5 melanoma = tested on: SK-MEL-5 melanoma
MDA-MB-231 breast = tested on: MDA-MB-231 breast
NCI-H522 lung = tested on: NCI-H522 lung
MDA-MB-435 = tested on: MDA-MB-435
OVCAR-4 ovarian = tested on: OVCAR-4 ovarian
COLO 205 colon = tested on: COLO 205 colon
MCF7 breast = tested on: MCF7 breast
RPMI-8226 leukemia = tested on: RPMI-8226 leukemia
KM12 colon = tested on: KM12 colon
OVCAR-8 ovarian = tested on: OVCAR-8 ovarian
A549 NSCLC = tested on: A549 NSCLC
MALME-3M melanoma = tested on: MALME-3M melanoma
786-0 renal = tested on: 786-0 renal
HS 578T breast = tested on: HS 578T breast
UO-31 renal = tested on: UO-31 renal
SF-539 CNS = tested on: SF-539 CNS
SK-OV-3 ovarian = tested on: SK-OV-3 ovarian
SR leukemia = tested on: SR leukemia
CAKI-1 renal = tested on: CAKI-1 renal
OVCAR-3 ovarian = tested on: OVCAR-3 ovarian
TK-10 renal = tested on: TK-10 renal
UACC-257 melanoma = tested on: UACC-257 melanoma
SK-MEL-28 melanoma = tested on: SK-MEL-28 melanoma
HCT-116 colon = tested on: HCT-116 colon
IGROV1 ovarian = tested on: IGROV1 ovarian
NCI-H460 lung = tested on: NCI-H460 lung
HT29 colon = tested on: HT29 colon

O=C1c2c(c3c4ccccc4n(CCCCCCN4CCOCC4)c3c3[nH]c4ccccc4c23)C(=O)N1O
TGI (RXF 393 renal): 25.9 µM
GI50 (LOX IMVI melanoma): 0.21 µM
TGI (LOX IMVI melanoma): 0.736 µM
GI50 (SK-MEL-5 melanoma): 4.22 µM
TGI (SK-MEL-5 melanoma): 20 µM
GI50 (MDA-MB-231 breast): 2.17 µM
TGI (MDA-MB-231 breast): 7.76 µM
GI50 (NCI-H522 lung): 1.58 µM
TGI (NCI-H522 lung): 4.15 µM
GI50 (MDA-MB-435): 3.72 µM
TGI (MDA-MB-435): 20.1 µM
GI50 (OVCAR-4 ovarian): 4.44 µM
TGI (OVCAR-4 ovarian): 20.7 µM
GI50 (COLO 205 colon): 4.74 µM
TGI (COLO 205 colon): 21.9 µM
GI50 (MCF7 breast): 2.07 µM
TGI (MCF7 breast): 7.73 µM
GI50 (RPMI-8226 leukemia): 2.57 µM
TGI (RPMI-8226 leukemia): 7.76 µM
GI50 (KM12 colon): 7.01 µM
TGI (KM12 colon): 57.7 µM
GI50 (OVCAR-8 ovarian): 2.44 µM
TGI (OVCAR-8 ovarian): 9.39 µM
GI50 (A549 NSCLC): 39.8 µM
TGI (A549 NSCLC): > 100 µM
GI50 (MALME-3M melanoma): 1.74 µM
TGI (MALME-3M melanoma): 3.76 µM
GI50 (786-0 renal): 1.96 µM
TGI (786-0 renal): 5.43 µM
GI50 (HS 578T breast): 2.07 µM
TGI (HS 578T breast): 6.61 µM
GI50 (UO-31 renal): 1.25 µM
TGI (UO-31 renal): 3.11 µM
GI50 (SF-539 CNS): 1.9 µM
TGI (SF-539 CNS): 4.03 µM
GI50 (SK-OV-3 ovarian): 20.6 µM
TGI (SK-OV-3 ovarian): 43.2 µM
GI50 (SR leukemia): 0.291 µM
TGI (SR leukemia): 1.08 µM
GI50 (CAKI-1 renal): 8.98 µM
TGI (CAKI-1 renal): 28.9 µM
GI50 (OVCAR-3 ovarian): 16.3 µM
TGI (OVCAR-3 ovarian): 33.8 µM
GI50 (TK-10 renal): 26.2 µM
TGI (TK-10 renal): 54.8 µM
GI50 (UACC-257 melanoma): 24.5 µM
TGI (UACC-257 melanoma): 56.6 µM
GI50 (SK-MEL-28 melanoma): 1.96 µM
TGI (SK-MEL-28 melanoma): 4.02 µM
GI50 (HCT-116 colon): 1.85 µM
TGI (HCT-116 colon): 3.86 µM
GI50 (IGROV1 ovarian): 3.76 µM
TGI (IGROV1 ovarian): 49.3 µM
GI50 (NCI-H460 lung): 1.81 µM
TGI (NCI-H460 lung): 3.66 µM
GI50 (HT29 colon): 3.39 µM
TGI (HT29 colon): 18.1 µM
